# Laboratory results as given in patent US12492181B2, “Gem-disubstituted piperidine melanocortin subtype-2 receptor (MC2R) antagonists and uses thereof” (Crinetics Pharmaceuticals, Inc., priority 2019, dated 2025).
# Target: T1, hMC2 receptor (crude hMC2R membranes from CRE-bla-CHO-K1 cells stably expressing hMC2 receptor and hMRAP accessory protein) (Homo sapiens, UniProt Q01718)
# T1 construct: crude membrane fractions
# Test: hMC2 membrane binding assay ([125I]ACTH (1-39) Tyr23, SPA)
# Conditions: displacement of 0.2 nM [125I]ACTH (1-39) Tyr23 from hMC2R membranes, 1.5 hours at room temperature; read-out: MC2R binding potency
# Method in brief: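 Ki values come from non-linear regression of SPA scintillation counts, with compounds displacing [125I]ACTH(1-39) Tyr23. Membranes come from CRE-bla-CHO-K1 cells stably expressing hMC2 receptor together with hMRAP. They are preincubated with WGA-coated PVT SPA beads in 50 mM HEPES pH 7.4 with 0.20% BSA, Mg2+, Ca2+ and protease inhibitors.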
# T1 sequence (Q01718 whole entry): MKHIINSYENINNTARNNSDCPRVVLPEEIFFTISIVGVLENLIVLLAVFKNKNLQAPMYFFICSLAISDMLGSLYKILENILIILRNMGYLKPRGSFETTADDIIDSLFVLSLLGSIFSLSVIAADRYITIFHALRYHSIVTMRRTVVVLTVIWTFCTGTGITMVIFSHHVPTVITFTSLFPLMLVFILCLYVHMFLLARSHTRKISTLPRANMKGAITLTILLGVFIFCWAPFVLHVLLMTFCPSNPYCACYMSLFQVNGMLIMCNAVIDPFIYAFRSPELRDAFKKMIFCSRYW
# T1 sequence (Q8TCY5 whole entry partner): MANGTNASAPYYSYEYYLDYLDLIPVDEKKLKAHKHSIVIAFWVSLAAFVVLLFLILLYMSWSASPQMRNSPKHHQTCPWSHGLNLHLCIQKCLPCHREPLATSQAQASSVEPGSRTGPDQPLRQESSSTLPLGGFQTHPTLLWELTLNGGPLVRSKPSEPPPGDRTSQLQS
row,Structure (SMILES),Ki
1,"CCOc1ccccc1-c1ccc(C2(C(=O)N[C@H]3CCN(C)C3)CCN(c3ccc(C(F)(F)F)cc3Cl)CC2)cn1 [Compound 1-97, 1-[2-chloro-4-(trifluoromethyl)phenyl]-4-[6-(2-ethoxyphenyl)pyridin-3-yl]-N-[(3S)-1-methylpyrrolidin-3-yl]piperidine-4-carboxamide]",< 0.01 µM
2,"CCOc1ccccc1-c1ccc(C2(C(=O)NCCNC)CCN(c3ccc(C(F)(F)F)cc3Cl)CC2)cn1 [Compound 1-230, 1-[2-chloro-4-(trifluoromethyl)phenyl]-4-[6-(2-ethoxyphenyl)pyridin-3-yl]-N-[2-(methylamino)ethyl]piperidine-4-carboxamide]",< 0.01 µM
3,"Cc1occc1-c1ccc(C2(C(=O)N[C@@H]3CCN(C)C3)CCN(c3ccc(C(F)(F)F)cc3C#N)CC2)cn1 [Compound 1-116, 1-[2-cyano-4-(trifluoromethyl)phenyl]-4-[6-(2-methylfuran-3-yl)pyridin-3-yl]-N-[(3R)-1-methylpyrrolidin-3-yl]piperidine-4-carboxamide]",< 0.01 µM
4,"CCOc1ncccc1-c1cnc(C2(C(=O)N[C@@H]3CCN(C)C3)CCN(c3ccc(C(F)(F)F)cc3C#N)CC2)cn1 [Compound 1-51, 1-[2-cyano-4-(trifluoromethyl)phenyl]-4-[5-(2-ethoxypyridin-3-yl)pyrazin-2-yl]-N-[(3R)-1-methylpyrrolidin-3-yl]piperidine-4-carboxamide]",< 0.01 µM
5,"CCc1ncccc1-c1ccc(C2(C(=O)N[C@H]3CCN(C)C3)CCN(c3ccc(C(F)(F)F)cc3Cl)CC2)cn1 [Compound 1-172, 1-[2-chloro-4-(trifluoromethyl)phenyl]-4-{2′-ethyl-[2,3′-bipyridin]-5-yl}-N-[(3S)-1-methylpyrrolidin-3-yl]piperidine-4-carboxamide]",< 0.01 µM
6,"CNCCNC(=O)C1(c2ccc(-c3cccn3C)nc2)CCN(c2ccc(C(F)(F)F)cc2F)CC1 [Compound 1-281, 1-[2-fluoro-4-(trifluoromethyl)phenyl]-4-[6-(1-methyl-1H-pyrrol-2-yl)pyridin-3-yl]-N-[2-(methylamino)ethyl]piperidine-4-carboxamide]",< 0.01 µM
7,"CN1CC(F)(F)C[C@H]1CNC(=O)C1(c2ccc(-c3cccn3C)nc2)CCN(c2ccc(C(F)(F)F)cc2C#N)CC1 [Compound 1-279, 1-[2-cyano-4-(trifluoromethyl)phenyl]-N-{[(2S)-4,4-difluoro-1-methylpyrrolidin-2-yl]methyl}-4-[6-(1-methyl-1H-pyrrol-2-yl)pyridin-3-yl]piperidine-4-carboxamide]",0.1 to 1 µM
8,"Cn1cccc1-c1ccc(C2(C(=O)N[C@H]3CCNC3)CCN(c3ccc(C(F)(F)F)cc3C#N)CC2)cn1 [Compound 1-152, 1-[2-cyano-4-(trifluoromethyl)phenyl]-4-[6-(1-methyl-1H-pyrrol-2-yl)pyridin-3-yl]-N-[(3S)-pyrrolidin-3-yl]piperidine-4-carboxamide]",< 0.01 µM
9,"CNCCCNC(=O)C1(c2ccc(-c3cccn3C)nc2)CCN(c2ccc(C(F)(F)F)cc2C#N)CC1 [Compound 1-206, 1-[2-cyano-4-(trifluoromethyl)phenyl]-4-[6-(1-methyl-1H-pyrrol-2-yl)pyridin-3-yl]-N-[3-(methylamino)propyl]piperidine-4-carboxamide]",0.01 to 0.1 µM
10,"CCOc1ncccc1-c1ccc(C2(C(=O)N[C@H]3CCN(C)C3)CCN(c3ccc(C#N)cc3C#N)CC2)cn1 [Compound 1-40, 1-(2,4-dicyanophenyl)-4-{2′-ethoxy-[2,3′-bipyridin]-5-yl}-N-[(3S)-1-methylpyrrolidin-3-yl]piperidine-4-carboxamide]",< 0.01 µM
11,"Cn1cccc1-c1ccc(C2(C(=O)NC34CCN(CC3)C4)CCN(c3ccc(C(F)(F)F)cc3C#N)CC2)cn1 [Compound 1-221, N-{1-azabicyclo[2.2.1]heptan-4-yl}-1-[2-cyano-4-(trifluoromethyl)phenyl]-4-[6-(1-methyl-1H-pyrrol-2-yl)pyridin-3-yl]piperidine-4-carboxamide]",0.01 to 0.1 µM

# More lines, now with the values ahead:
row,Ki,Structure (SMILES)
1,< 0.01 µM,"CCOc1ccccc1-c1ccc(C2(NC(=O)[C@H]3CCN(C)C3)CCN(c3ccc(C(F)(F)F)cc3C#N)CC2)cn1 [Compound 2-27, (3S)—N-{1-[2-cyano-4-(trifluoromethyl)phenyl]-4-[6-(2-ethoxyphenyl)pyridin-3-yl]piperidin-4-yl}-1-methylpyrrolidine-3-carboxamide]"
2,< 0.01 µM,"COc1ncccc1-c1ccc(C2(C(=O)NCCN(C)C)CCN(c3ccc(C(F)(F)F)cc3F)CC2)cn1 [Compound 1-271, N-[2-(dimethylamino)ethyl]-1-[2-fluoro-4-(trifluoromethyl)phenyl]-4-{2′-methoxy-[2,3′-bipyridin]-5-yl}piperidine-4-carboxamide]"
3,< 0.01 µM,"CCOc1ncccc1-c1ncc(C2(C(=O)NCCN(C)C)CCN(c3ccc(C(F)(F)F)cc3F)CC2)cc1F [Compound 1-284, N-[2-(dimethylamino)ethyl]-4-{2′-ethoxy-3-fluoro-[2,3′-bipyridin]-5-yl}-1-[2-fluoro-4-(trifluoromethyl)phenyl]piperidine-4-carboxamide]"
4,0.01 to 0.1 µM,"COc1ccccc1-c1ccc(C2(NC(=O)NC3CN(C)C3)CCN(c3ccc(C(F)(F)F)cc3C#N)CC2)cn1 [Compound 2-59, 1-{1-[2-cyano-4-(trifluoromethyl)phenyl]-4-[6-(2-methoxyphenyl)pyridin-3-yl]piperidin-4-yl}-3-(1-methylazetidin-3-yl)urea]"
5,< 0.01 µM,"CCOc1ncccc1-c1ccc(C2(C(=O)NC[C@H](CO)NC)CCN(c3ccc(C(F)(F)F)cc3C#N)CC2)cn1 [Compound 1-44, 1-[2-cyano-4-(trifluoromethyl)phenyl]-4-{2′-ethoxy-[2,3′-bipyridin]-5-yl}-N-[(2R)-3-hydroxy-2-(methylamino)propyl]piperidine-4-carboxamide]"
6,< 0.01 µM,"CCOc1ccccc1-c1ccc(C2(C(=O)N[C@@H]3CCN(C)C3)CCN(c3ccc(C(F)(F)F)cc3C#N)CC2)cn1 [Compound 1-31, 1-[2-cyano-4-(trifluoromethyl)phenyl]-4-[6-(2-ethoxyphenyl)pyridin-3-yl]-N-[(3R)-1-methylpyrrolidin-3-yl]piperidine-4-carboxamide]"
7,< 0.01 µM,"CNCCNC(=O)C1(c2ccc(-c3ccccc3OC)nc2)CCN(c2ccc(C(F)(F)F)cc2C#N)CC1 [Compound 1-214, 1-[2-cyano-4-(trifluoromethyl)phenyl]-4-[6-(2-methoxyphenyl)pyridin-3-yl]-N-[2-(methylamino)ethyl]piperidine-4-carboxamide]"
8,< 0.01 µM,"COc1ccccc1-c1ncc(C2(NC(=O)CN(C)C)CCN(c3ccc(C(F)(F)F)cc3C#N)CC2)cc1F [Compound 2-61, N-{1-[2-cyano-4-(trifluoromethyl)phenyl]-4-[5-fluoro-6-(2-methoxyphenyl)pyridin-3-yl]piperidin-4-yl}-2-(dimethylamino)acetamide]"
9,< 0.01 µM,"COc1ccccc1-c1ccc(C2(C(=O)NC3CN(C)C3)CCN(c3ccc(Cl)cc3C#N)CC2)cn1 [Compound 1-92, 1-(4-chloro-2-cyanophenyl)-4-[6-(2-methoxyphenyl)pyridin-3-yl]-N-(1-methylazetidin-3-yl)piperidine-4-carboxamide]"
10,< 0.01 µM,"COc1ccccc1-c1ccc(C2(C(=O)NC[C@@H]3COCCN3C)CCN(c3ccc(C(F)(F)F)cc3C#N)CC2)cn1 [Compound 1-329, 1-[2-cyano-4-(trifluoromethyl)phenyl]-4-[6-(2-methoxyphenyl)pyridin-3-yl]-N-{[(3R)-4-methylmorpholin-3-yl]methyl}piperidine-4-carboxamide]"
